Values quoted from earlier work as cited in patent US20170326180A1, “Demineralized Bone Matrix Material having Allogenic Sphingosine-1-Phosphate” (DePuy Synthes Products, Inc., priority 2016, published 2017).

Tested on: mesenchymal stem cells
Conditions: solution having 0.1 and 1 uM C1P; reported by Kim

ceramide-1-phosphate [C1P]
chemotactic activity for mesenchymal stem cells: chemotactic activity
